This note sets out measurements from paper PMC9030254, “Target Hopping from Protein Kinases to PXR: Identification of Small-Molecule Protein Kinase Inhibitors as Selective Modulators of Pregnane X Receptor from TüKIC Library” (Cells, 2022).

Assay type in all cases: cell-based
Series [1] has as its target T1, PXR interaction with coactivator SRC1 (Homo sapiens, UniProt O75469).
T1 construct: VP16-PXR LBD(108–434); expressed in transfected cells; host or cells: HepG2
T1 sequence (O75469 108-434): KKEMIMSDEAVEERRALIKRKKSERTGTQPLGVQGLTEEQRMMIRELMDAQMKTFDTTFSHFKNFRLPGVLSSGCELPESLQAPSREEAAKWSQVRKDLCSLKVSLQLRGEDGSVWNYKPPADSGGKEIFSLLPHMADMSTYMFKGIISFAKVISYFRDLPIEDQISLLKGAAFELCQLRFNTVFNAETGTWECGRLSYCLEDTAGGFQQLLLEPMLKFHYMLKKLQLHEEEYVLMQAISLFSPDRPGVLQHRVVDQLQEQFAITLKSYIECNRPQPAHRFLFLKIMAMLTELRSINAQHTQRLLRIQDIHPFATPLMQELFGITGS
The series is described as follows: Mammalian two-hybrid coactivator interaction assay. To be noted: for effect on rifampicin-dependent recruitment of SRC1 by PXR: HepG2, 10 µM compound + 10 µM rifampicin; for induction of interaction of PXR with coactivator SRC1: HepG2, 10 µM, alone. The procedure:
(§1) In mammalian two-hybrid corepressor/coactivator interaction assays, per well 0.24 µg pGL4-G5, 0.01 µg pGL4.75[hRluc/CMV], 0.03 µg expression plasmid encoding VP16-AD/PXR LBD fusion, and 0.03 µg expression plasmids encoding GAL4-DBD/SRC1-RID or GAL4-DBD/SMRT-RID fusions, respectively, were used. For the SMRT corepressor interaction assay, additionally 0.015 µg of RXRα expression plasmid was included.

Series [2] addresses T2, PXR interaction with corepressor SMRT (Homo sapiens, UniProt O75469).
T2 construct: VP16-PXR LBD(108–434); expressed in transfected cells; host or cells: HepG2
T2 sequence (O75469 108-434): T1 sequence (O75469 108-434)
T2 sequence (P19793 1-462 partner): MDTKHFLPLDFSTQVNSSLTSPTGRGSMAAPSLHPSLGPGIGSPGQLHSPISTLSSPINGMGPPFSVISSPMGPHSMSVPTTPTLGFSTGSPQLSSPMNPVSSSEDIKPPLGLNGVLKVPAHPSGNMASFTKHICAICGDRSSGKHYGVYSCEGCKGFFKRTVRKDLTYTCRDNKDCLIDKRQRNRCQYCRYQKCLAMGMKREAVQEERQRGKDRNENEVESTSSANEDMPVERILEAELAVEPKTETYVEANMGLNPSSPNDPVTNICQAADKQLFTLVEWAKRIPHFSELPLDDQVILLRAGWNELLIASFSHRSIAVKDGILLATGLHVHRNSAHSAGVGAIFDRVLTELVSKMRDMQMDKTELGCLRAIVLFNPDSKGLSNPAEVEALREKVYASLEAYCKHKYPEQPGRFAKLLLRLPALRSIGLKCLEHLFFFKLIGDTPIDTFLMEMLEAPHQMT
In words: Mammalian two-hybrid corepressor interaction assay. To be noted: HepG2, 10 µM. The procedure: as §1

In the next series the target is T3, PXR (Homo sapiens, UniProt O75469).
T3 sequence (O75469 1-434): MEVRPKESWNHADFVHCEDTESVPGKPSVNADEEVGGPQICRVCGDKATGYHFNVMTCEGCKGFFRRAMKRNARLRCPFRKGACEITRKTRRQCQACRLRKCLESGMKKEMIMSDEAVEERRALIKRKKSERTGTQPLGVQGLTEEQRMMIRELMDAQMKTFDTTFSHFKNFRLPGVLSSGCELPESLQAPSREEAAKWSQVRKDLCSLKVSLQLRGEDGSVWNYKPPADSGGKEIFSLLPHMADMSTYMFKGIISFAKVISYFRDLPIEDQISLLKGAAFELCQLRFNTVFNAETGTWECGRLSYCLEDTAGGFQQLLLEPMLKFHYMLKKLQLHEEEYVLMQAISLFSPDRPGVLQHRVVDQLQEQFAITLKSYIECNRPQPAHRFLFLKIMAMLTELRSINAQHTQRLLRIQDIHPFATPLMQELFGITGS
In words: PXR-dependent CYP3A4 reporter gene assay, agonist mode. Further details: expressed in transfected cells; host or cells: H-P cells (HepG2 stably transfected with PXR). The settings on record: H-P cells; for activation of CYP3A4 reporter on their own, % of rifampicin activity: 10 µM compound alone, 10 µM rifampicin = 100%; for activation of CYP3A4 reporter on their own, % of rifampicin activity / EC50: 24 h; for EC50 / fold induction at 24 h: compound alone; for EC50: read-out: EC50, PXR activation; for fold induction at 24 h: human, vs DMSO, read-out: maximal effect (Emax), fold induction. An excerpt: Figure 1 Identification of novel putative PXR ligands from the TüKIC library. (A) Workflow of the in silico screening and structures of the identified candidate ligands. (B) Concentration–response curves of the novel inhibitors for antagonism of PXR activity. (C) Concentration–response curves of the same compounds and 109 for PXR activation. […] Data are expressed as mean ± SD fold induction with respect to the DMSO-treated cells from three independent experiments. IC50 and EC50 values calculated with nonlinear regression using formula with 3 parameters (constraint bottom =1) using GraphPadPrism.
Supplementary Figure S1. Effects of 56 in silico screened TüKIC compounds (A) alone or (B) in combination […]
H-P cells were transiently
Luciferase activities were measured after 24 h treatment. Data is expressed as mean ± SD %. Activation was calculated according to Zhu et al. from three independent experiments with technical triplicates. Fold induction achieved by 10 μM […]
Green and red dashed lines represent the 100% and 50% activation, respectively.
(1 picture or pasted object on this page, not shown here)

For a further series, the target named is T4, CAR3 (Homo sapiens, UniProt Q14994, DEL233-236).
T4 construct: expressed in transfected cells; host or cells: HepG2
T4 sequence (Q14994 with tags, fused parts or gaps isoform Q14994-8 DEL233-236): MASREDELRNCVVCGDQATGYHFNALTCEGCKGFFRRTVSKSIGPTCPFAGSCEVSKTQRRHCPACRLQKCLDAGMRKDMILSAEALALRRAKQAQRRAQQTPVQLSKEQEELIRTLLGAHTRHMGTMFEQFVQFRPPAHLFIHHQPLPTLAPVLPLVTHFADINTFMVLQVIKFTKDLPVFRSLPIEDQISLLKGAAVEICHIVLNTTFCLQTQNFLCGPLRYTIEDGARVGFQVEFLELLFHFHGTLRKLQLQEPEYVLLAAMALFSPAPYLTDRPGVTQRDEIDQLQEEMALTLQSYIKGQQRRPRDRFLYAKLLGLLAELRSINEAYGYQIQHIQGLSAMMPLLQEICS
T4 sequence (P19793 1-462 partner): T2 sequence (P19793 1-462 partner)
In words: Nuclear receptor selectivity reporter assay, CAR3. To be noted: for impairment of ligand-induced activation of CAR3 by CITCO: HepG2, 10 µM compound + 10 µM CITCO. The procedure: For testing nuclear receptor selectivity and LBP-filled PXR mutant activation, transient batch transfection was conducted as above, but with HepG2 cells and the following plasmids, with amounts per well of 0.23–0.27 µg pGL4-CYP3A4(-7830Δ7208-364) or pGL3(DR3)3Tk (as reporter for VDR), 0.01 µg pMetLuc2control, and 0.03 µg either CAR1, CAR3, VDR, or PXR(S208W/S247W/C284W) expression plasmids. In addition, 0.03 µg RXRα expression plasmid was added to CAR3 transfections. Metridia luciferase activity was measured from 10 µL of medium supernatant after adding 100 µL Renilla luciferase assay solution.
Figure 6 Selectivity of novel PXR ligands within the NR1I group of nuclear receptors. HepG2 cells were transiently transfected with CYP3A4 reporter and expression plasmids encoding (A) CAR1 or (B) CAR3, or (C) direct repeat (DR3)3 reporter and expression plasmid encoding VDR. Cells were treated with 0.2% DMSO or 10 µM chemicals as indicated. 1α,25(OH)2D3 was used at 1 µM.

“And” between values parts separate entries of the source, which are not always exact repeats. Identical values can stand only once.

The EC50 is the midpoint of the concentration-response curve. `Cc1ccc(NC(=O)Cc2ccccc2)cc1Nc1ccc2c(c1)CCCCC2=O` [Compound 73]: in series [1], the “effect on rifampicin-dependent recruitment of SRC1 by PXR” value is reported as “abrogated the rifampicin-dependent recruitment of SRC1 by PXR” and the “induction of interaction of PXR with coactivator SRC1” value (“induction of interaction of PXR” below) is on record as “did not induce any interaction of PXR with coactivator SRC1”. In addition, the “effect on constitutive interaction of PXR with corepressor SMRT” value (shortened to “effect on constitutive interaction”) in series [2] was “impaired the constitutive interaction of PXR with the corepressor”. Further, on PXR, the “activation of CYP3A4 reporter on their own, % of rifampicin activity” value is “about 10%”; the 50% effective concentration (EC50) came to 0.41 µM; the fold induction at 24 h is approximately 2. Further, the “activation of CAR3 on their own” value on CAR3 (HepG2, 10 µM) is listed as “Neither CAR3 nor VDR were activated”. The “impairment of ligand-induced activation of CAR3 by CITCO” value at CAR3 is on record as 46%.

On to `O=C(Cc1ccccc1)Nc1ccc(F)c(Nc2ccc3c(c2)CCCCC3=O)c1` [Compound 100], for which, in series [1], the “effect on rifampicin-dependent recruitment of SRC1 by PXR” value is “abrogated the rifampicin-dependent recruitment of SRC1 by PXR” and the “induction of interaction of PXR” value is given as “did not induce any interaction of PXR with coactivator SRC1”. The “effect on constitutive interaction” value in series [2] was “impaired the constitutive interaction of PXR with the corepressor”. Besides, at PXR, the “activation of CYP3A4 reporter on their own, % of rifampicin activity” value is recorded as “about 10%”; the 50% effective concentration (EC50) worked out at 0.15 µM; the fold induction at 24 h was approximately 2. The “activation of CAR3 on their own” value on CAR3 (HepG2, 10 µM) was “Neither CAR3 nor VDR were activated”. Also, the “impairment of ligand-induced activation of CAR3 by CITCO” value at CAR3 was “no respective effects”.

On to `O=C(Nc1ccc(F)c(Nc2ccc3c(c2)CCCCC3=O)c1)c1cccc(F)c1` [Compound 109], for which the “induction of interaction of PXR” value in series [1] was “interaction with SRC1 was induced”. Also, the “effect on constitutive interaction” value in series [2] is “impaired the constitutive interaction of PXR with the corepressor”. Also, on PXR, the half-maximal effective concentration (EC50) is 44 µM and 29.2 µM; the fold induction at 24 h is 27. Also, the “activation of CAR3, % of the effect of CITCO” value at CAR3 (HepG2, 10 µM) was determined as 12%.
